The values below come from PMC10870243 (Clinical and Translational Science, 2024).

SMILES strings stand for the structures. Read-outs that look alike come from different tables or passages of the source.

Data set [1] is classed as in vivo, human.
The nature of data set [2]: Phase I DDI study: safety and tolerability. The format is in vivo, human. As to conditions: for overall safety and tolerability: healthy participants, clesacostat 15 mg b.i.d., ervogastat 300 mg b.i.d.
In data set [3] the test system is CYP3A. The experiment in a line: In vitro CYP3A time-dependent inhibition. In kind it is in vitro ADME. As to conditions: 0–300 μM.
The target of the next data set is P‐glycoprotein (Pgp) (Homo sapiens, UniProt P08183). The data set is described as follows: In vitro efflux transporter study, P-glycoprotein. The format is in vitro ADME.
Chain of P‐glycoprotein (Pgp) (P08183 whole entry): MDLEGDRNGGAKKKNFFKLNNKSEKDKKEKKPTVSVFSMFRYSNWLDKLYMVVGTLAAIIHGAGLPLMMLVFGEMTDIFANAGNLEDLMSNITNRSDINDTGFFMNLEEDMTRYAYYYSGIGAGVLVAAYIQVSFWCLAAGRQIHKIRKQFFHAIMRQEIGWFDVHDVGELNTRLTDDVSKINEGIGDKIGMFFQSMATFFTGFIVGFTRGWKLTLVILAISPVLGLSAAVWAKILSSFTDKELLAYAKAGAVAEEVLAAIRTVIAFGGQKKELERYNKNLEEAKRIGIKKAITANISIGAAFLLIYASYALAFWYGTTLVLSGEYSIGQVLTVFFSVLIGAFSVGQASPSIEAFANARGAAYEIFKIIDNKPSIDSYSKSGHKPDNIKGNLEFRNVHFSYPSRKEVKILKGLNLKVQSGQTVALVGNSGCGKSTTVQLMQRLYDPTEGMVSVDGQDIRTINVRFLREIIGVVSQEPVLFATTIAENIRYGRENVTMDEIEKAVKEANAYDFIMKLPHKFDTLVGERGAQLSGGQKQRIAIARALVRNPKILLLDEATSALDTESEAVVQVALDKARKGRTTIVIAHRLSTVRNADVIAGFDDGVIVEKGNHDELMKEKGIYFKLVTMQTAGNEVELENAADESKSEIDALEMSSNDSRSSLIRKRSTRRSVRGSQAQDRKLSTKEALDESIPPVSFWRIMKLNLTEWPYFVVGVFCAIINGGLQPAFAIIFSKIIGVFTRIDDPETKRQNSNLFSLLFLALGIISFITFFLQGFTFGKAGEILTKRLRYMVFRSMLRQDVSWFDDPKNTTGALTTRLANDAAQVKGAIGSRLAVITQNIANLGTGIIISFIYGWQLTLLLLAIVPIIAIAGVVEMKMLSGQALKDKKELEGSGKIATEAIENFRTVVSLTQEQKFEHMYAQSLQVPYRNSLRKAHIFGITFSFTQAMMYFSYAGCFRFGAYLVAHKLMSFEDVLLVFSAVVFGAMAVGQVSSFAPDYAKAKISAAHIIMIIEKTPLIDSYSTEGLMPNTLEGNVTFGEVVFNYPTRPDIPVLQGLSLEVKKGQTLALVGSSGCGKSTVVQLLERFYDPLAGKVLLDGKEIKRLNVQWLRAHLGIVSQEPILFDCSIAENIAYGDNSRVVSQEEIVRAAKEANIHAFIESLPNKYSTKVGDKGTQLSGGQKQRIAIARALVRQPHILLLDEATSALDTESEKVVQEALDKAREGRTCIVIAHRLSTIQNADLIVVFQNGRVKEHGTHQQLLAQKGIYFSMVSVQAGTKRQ
Data set [4] has as its target T1, breast cancer resistance protein (BCRP) (Homo sapiens, UniProt Q9UNQ0).
T1 sequence (Q9UNQ0 1-655): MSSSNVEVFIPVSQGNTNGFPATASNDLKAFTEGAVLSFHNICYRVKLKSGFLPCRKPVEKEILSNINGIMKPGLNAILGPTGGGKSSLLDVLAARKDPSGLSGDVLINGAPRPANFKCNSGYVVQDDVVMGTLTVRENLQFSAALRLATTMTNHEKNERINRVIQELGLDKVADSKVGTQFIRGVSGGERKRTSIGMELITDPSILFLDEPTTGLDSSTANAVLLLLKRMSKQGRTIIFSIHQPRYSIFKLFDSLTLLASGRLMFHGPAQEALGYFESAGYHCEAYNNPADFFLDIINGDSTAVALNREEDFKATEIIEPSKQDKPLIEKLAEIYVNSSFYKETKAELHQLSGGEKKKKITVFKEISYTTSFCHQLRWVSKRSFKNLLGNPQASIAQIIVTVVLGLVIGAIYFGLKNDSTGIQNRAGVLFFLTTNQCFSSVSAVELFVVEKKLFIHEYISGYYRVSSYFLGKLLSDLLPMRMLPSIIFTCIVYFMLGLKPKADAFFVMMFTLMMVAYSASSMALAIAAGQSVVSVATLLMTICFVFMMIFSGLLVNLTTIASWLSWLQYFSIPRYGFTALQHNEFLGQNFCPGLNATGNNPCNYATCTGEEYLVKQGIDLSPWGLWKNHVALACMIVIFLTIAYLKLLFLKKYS
The experiment in a line: In vitro efflux transporter study, BCRP. The format is in vitro ADME.

The format of data set [5] is in vivo, human. As to conditions: for T max / Tmax: median (range); for PTR (peak-to-trough ratio): geometric mean; for CL/F: geometric mean (%CV); for Tmax: T max.
The subject of data set [6] is CYP3A. The data set is described as follows: In vitro CYP3A induction in human hepatocytes. In kind it is in vitro ADME.
Data set [7] has as its system CYP3A. The settings on record: healthy adults, total daily dose ≤720 mg; cited from earlier work.
Where [8] appears, read: clesacostat 15 mg b.i.d. co-administered with ervogastat 300 mg b.i.d.
Where [9] appears, read: same participant, Day 9 (7 days clesacostat alone then 2 days with ervogastat).
The mark [10] stands for this setting: ervogastat 300 mg + clesacostat 15 mg b.i.d., Day 14.
[11] abbreviates: ervogastat 300 mg b.i.d. alone, Day 7.

Take `COc1cc(C(=O)N2CCC3(CC2)CC(=O)c2c(cnn2C(C)C)C3)cc(-c2ccc(C(=O)O)cc2)n1` [clesacostat]: in data set [1] (setting [8]), the “decrease in mean systemic exposure based on AUCtau” value is given as 19% and the “decrease in mean systemic exposure based on C max” value came out at 12%. For the same molecule, in data set [1] (human, plasma, oral, 15 mg), the AUC was found to be 12100 ng·h/mL, the highest level (Cmax) was 1340 ng/mL and the time to peak (Tmax) was found to be 4 h. Besides, the “overall safety and tolerability” value in data set [2] is “generally safe and well tolerated”. Moreover, in data set [2] (setting [9]), the ALT elevation was found to be 3.8 × ULN, the AST elevation turned out to be 2.9 × ULN and the GGT elevation stood at 3.3 × ULN. Besides, the “composite slope based on observed inactivation rate constant (k obs)” value in the data set on CYP3A [3] (midazolam as probe) was found to be 0.452 M⁻¹ s⁻¹. Moreover, in the data set on CYP3A [3] (testosterone as probe), the “composite slope based on observed inactivation rate constant (k obs)” value was determined as 0.398 M⁻¹ s⁻¹. Besides, on P‐glycoprotein (Pgp), the “substrate for Pgp” value is “substrates”. The “substrate for BCRP” value in data set [4] is on record as “substrates”.
Regarding `CCOc1cccnc1Oc1cncc(-c2ncc(C(=O)N[C@H]3CCOC3)cn2)c1` [ervogastat], the T max in data set [5] (ervogastat 300 mg + clesacostat 15 mg b.i.d., Day 14, n=9) is reported as 2.00 (1.00–2.00) h. In data set [5] (setting [10]), the PTR (peak-to-trough ratio) came to 150 and the CL/F is recorded as 31.76 (34) L/h. Besides, the T max in data set [5] (ervogastat 300 mg b.i.d. alone, Day 7, n=9) is on record as 2.00 (1.00–4.00) h. Further, in data set [5] (setting [11]), the PTR (peak-to-trough ratio) was 94.3 and the CL/F is 34.41 (19) L/h. Besides, in data set [5] (human, plasma, oral, 300 mg), the area under the curve (AUC) came to 8720 ng·h/mL and the concentration peaked (Cmax) at 2390 ng/mL. In addition, in data set [5] (human, plasma, oral, 300 mg, ervogastat 300 mg b.i.d. alone, Day 7, n=9), the Tmax is about 2 h. In addition, in data set [5] (human, plasma, oral, ervogastat 300 mg + clesacostat 15 mg b.i.d., Day 14, n=9), the Tmax is about 2 h. Besides, the “overall safety and tolerability” value in data set [2] is “generally safe and well tolerated”. In the data set with CYP3A [6], the EC50 was 21.4 to 37.2 µM. For the same molecule, at P‐glycoprotein (Pgp), the “inhibition of Pgp” value was “may inhibit” and the “substrate for Pgp” value is on record as “substrates”. Further, in data set [4], the “inhibition of BCRP” value is “may inhibit” and the “substrate for BCRP” value is “substrates”. For the same molecule, the “change in 4β-hydroxycholesterol” value in the data set with CYP3A [7] is recorded as “no changes”.

As usually defined, the AUC is the area under the concentration-time curve, a measure of exposure. In general, Cmax refers to the maximum level reached in the sampled fluid or tissue. One may read the Tmax as the time from dosing to the highest level. Broadly, the EC50 is the concentration giving half of the maximal effect. Read a high EC50 as lower potency in that assay.
